Data from PubChem BioAssay (NCI).
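Following 48 hours of exposure in 96-well plates, responses at five concentrations were used to interpolate endpoints linearly. Here, GI50 denotes the concentration required for 50% inhibition of growth. TGI is the concentration that stops growth completely.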

Tests used:
Test in all cases: growth of human tumour cells (NCI), 48 h
786-0 renal = tested on: 786-0 renal
A498 renal = tested on: A498 renal
A549 NSCLC = tested on: A549 NSCLC
ACHN renal = tested on: ACHN renal
BT-549 breast = tested on: BT-549 breast
CAKI-1 renal = tested on: CAKI-1 renal
CCRF-CEM leukemia = tested on: CCRF-CEM leukemia
DU-145 prostate = tested on: DU-145 prostate
EKVX NSCLC = tested on: EKVX NSCLC
HCC-2998 colon = tested on: HCC-2998 colon
HCT-116 colon = tested on: HCT-116 colon
HCT-15 colon = tested on: HCT-15 colon
HL-60(TB) leukemia = tested on: HL-60(TB) leukemia
HOP-62 NSCLC = tested on: HOP-62 NSCLC
HOP-92 NSCLC = tested on: HOP-92 NSCLC
HS 578T breast = tested on: HS 578T breast
HT29 colon = tested on: HT29 colon
IGROV1 ovarian = tested on: IGROV1 ovarian
K-562 leukemia = tested on: K-562 leukemia
KM12 colon = tested on: KM12 colon
M14 melanoma = tested on: M14 melanoma
MALME-3M melanoma = tested on: MALME-3M melanoma
MCF7 breast = tested on: MCF7 breast
MDA-MB-231 breast = tested on: MDA-MB-231 breast
MDA-MB-435 = tested on: MDA-MB-435
MDA-MB-468 breast = tested on: MDA-MB-468 breast
MOLT-4 leukemia = tested on: MOLT-4 leukemia

`O=C(/C=C/c1cccc(OCc2ccccc2)c1)c1nc2ccccc2[nH]1` was tested, and the GI50 (786-0 renal) was 14 µM, the TGI (786-0 renal) was 44.1 µM and the GI50 (A498 renal) was 25 µM. The TGI (A498 renal) was > 100 µM, the GI50 (A549 NSCLC) was 49.9 µM and the TGI (A549 NSCLC) was > 100 µM. For the same molecule, the GI50 (ACHN renal) was 29.6 µM, the TGI (ACHN renal) was > 100 µM and the GI50 (BT-549 breast) was 11.4 µM. The TGI (BT-549 breast) was 40.2 µM, the GI50 (CAKI-1 renal) was 14 µM and the TGI (CAKI-1 renal) was > 100 µM. The GI50 (CCRF-CEM leukemia) was 8.99 µM, the TGI (CCRF-CEM leukemia) was > 100 µM and the GI50 (DU-145 prostate) was 54.6 µM. For the same molecule, the TGI (DU-145 prostate) was > 100 µM, the GI50 (EKVX NSCLC) was 19.9 µM and the TGI (EKVX NSCLC) was 69.7 µM. For the same molecule, the GI50 (HCC-2998 colon) was 7.19 µM, the TGI (HCC-2998 colon) was 41.3 µM and the GI50 (HCT-116 colon) was 3.2 µM. The TGI (HCT-116 colon) was > 100 µM, the GI50 (HCT-15 colon) was 3.06 µM and the TGI (HCT-15 colon) was > 100 µM. It also gave a GI50 (HL-60(TB) leukemia) of 4.39 µM, a TGI (HL-60(TB) leukemia) of 25 µM and a GI50 (HOP-62 NSCLC) of 17.8 µM. The TGI (HOP-62 NSCLC) was 43.2 µM, the GI50 (HOP-92 NSCLC) was 6.51 µM and the TGI (HOP-92 NSCLC) was 37.2 µM. For the same molecule, the GI50 (HS 578T breast) was 20.3 µM, the TGI (HS 578T breast) was 82.5 µM and the GI50 (HT29 colon) was 3.98 µM. For the same molecule, the TGI (HT29 colon) was > 100 µM, the GI50 (IGROV1 ovarian) was 14 µM and the TGI (IGROV1 ovarian) was 78.2 µM. The GI50 (K-562 leukemia) was 4.14 µM, the TGI (K-562 leukemia) was > 100 µM and the GI50 (KM12 colon) was 3.56 µM. The TGI (KM12 colon) was > 100 µM, the GI50 (M14 melanoma) was 45.1 µM and the TGI (M14 melanoma) was > 100 µM. For the same molecule, the GI50 (MALME-3M melanoma) was 28.3 µM, the TGI (MALME-3M melanoma) was > 100 µM and the GI50 (MCF7 breast) was 2.9 µM. For the same molecule, the TGI (MCF7 breast) was > 100 µM, the GI50 (MDA-MB-231 breast) was 11.9 µM and the TGI (MDA-MB-231 breast) was 42.5 µM. For the same molecule, the GI50 (MDA-MB-435) was > 100 µM, the TGI (MDA-MB-435) was > 100 µM and the GI50 (MDA-MB-468 breast) was 10.7 µM. It also gave a TGI (MDA-MB-468 breast) of 82.5 µM, a GI50 (MOLT-4 leukemia) of 5.28 µM and a TGI (MOLT-4 leukemia) of 55.1 µM.
